Data: ChEMBL document CHEMBL5678818, “Discovery of potent SOS1 inhibitors that block RAS activation via disruption of the RAS-SOS1 interaction” (Proc Natl Acad Sci U S A, 2019)

Assays:
[1] = biological target: Tyrosine-protein kinase Fyn (Homo sapiens) (UniProt P06241); experiment: Inhibition of FYN (unknown origin) assessed as residual activity at 1000 nM by KINOMEscan analysis relative to control
[2] = biological target: Serine/threonine-protein kinase pim-1 (Homo sapiens) (UniProt P11309); experiment: Inhibition of PIM1 (unknown origin) assessed as residual activity at 1000 nM by KINOMEscan analysis relative to control
[3] = biological target: Tyrosine-protein kinase JAK1 (Homo sapiens) (UniProt P23458); experiment: Inhibition of JAK1 JH2 pseudokinase domain (unknown origin) assessed as residual activity at 1000 nM by KINOMEscan analysis relative to control
[4] = biological target: Ephrin type-A receptor 5 (Homo sapiens) (UniProt P54756); experiment: Inhibition of EPHA5 (unknown origin) assessed as residual activity at 1000 nM by KINOMEscan analysis relative to control
[5] = biological target: Ribosomal protein S6 kinase alpha-5 (Homo sapiens) (UniProt O75582); experiment: Inhibition of N-terminal RPS6KA5 kinetic domain 1 (unknown origin) assessed as residual activity at 1000 nM by KINOMEscan analysis relative to control
[6] = tested on: Receptor-type tyrosine-protein kinase FLT3 (Homo sapiens), P36888 [R834Q]; experiment: Inhibition of FLT3 R834Q mutant (unknown origin) assessed as residual activity at 1000 nM by KINOMEscan analysis relative to control
[7] = biological target: Cyclin-dependent kinase 17 (Homo sapiens) (UniProt Q00537); experiment: Inhibition of PCTK2 (unknown origin) assessed as residual activity at 1000 nM by KINOMEscan analysis relative to control
[8] = biological target: Tyrosine-protein kinase ABL1 (Homo sapiens) (UniProt P00519); experiment: Inhibition of phosphorylated ABL1 (unknown origin) assessed as residual activity at 1000 nM by KINOMEscan analysis relative to control
[9] = biological target: G protein-coupled receptor kinase 4 (Homo sapiens) (UniProt P32298); experiment: Inhibition of GRK4 (unknown origin) assessed as residual activity at 1000 nM by KINOMEscan analysis relative to control
[10] = biological target: Serine/threonine-protein kinase 24 (Homo sapiens) (UniProt Q9Y6E0); experiment: Inhibition of MST3 (unknown origin) assessed as residual activity at 1000 nM by KINOMEscan analysis relative to control
[11] = biological target: Homeodomain-interacting protein kinase 1 (Homo sapiens) (UniProt Q86Z02); experiment: Inhibition of HIPK1 (unknown origin) assessed as residual activity at 1000 nM by KINOMEscan analysis relative to control
[12] = biological target: Tyrosine-protein kinase Fer (Homo sapiens) (UniProt P16591); experiment: Inhibition of FER (unknown origin) assessed as residual activity at 1000 nM by KINOMEscan analysis relative to control
[13] = biological target: Cyclin-dependent kinase 11B (Homo sapiens) (UniProt P21127); experiment: Inhibition of CDC2L1 (unknown origin) assessed as residual activity at 1000 nM by KINOMEscan analysis relative to control
[14] = biological target: T1, Serine/threonine-protein kinase ULK1 (Homo sapiens) (UniProt O75385); experiment: Inhibition of ULK1 (unknown origin) assessed as residual activity at 1000 nM by KINOMEscan analysis relative to control
T1 sequence (whole entry): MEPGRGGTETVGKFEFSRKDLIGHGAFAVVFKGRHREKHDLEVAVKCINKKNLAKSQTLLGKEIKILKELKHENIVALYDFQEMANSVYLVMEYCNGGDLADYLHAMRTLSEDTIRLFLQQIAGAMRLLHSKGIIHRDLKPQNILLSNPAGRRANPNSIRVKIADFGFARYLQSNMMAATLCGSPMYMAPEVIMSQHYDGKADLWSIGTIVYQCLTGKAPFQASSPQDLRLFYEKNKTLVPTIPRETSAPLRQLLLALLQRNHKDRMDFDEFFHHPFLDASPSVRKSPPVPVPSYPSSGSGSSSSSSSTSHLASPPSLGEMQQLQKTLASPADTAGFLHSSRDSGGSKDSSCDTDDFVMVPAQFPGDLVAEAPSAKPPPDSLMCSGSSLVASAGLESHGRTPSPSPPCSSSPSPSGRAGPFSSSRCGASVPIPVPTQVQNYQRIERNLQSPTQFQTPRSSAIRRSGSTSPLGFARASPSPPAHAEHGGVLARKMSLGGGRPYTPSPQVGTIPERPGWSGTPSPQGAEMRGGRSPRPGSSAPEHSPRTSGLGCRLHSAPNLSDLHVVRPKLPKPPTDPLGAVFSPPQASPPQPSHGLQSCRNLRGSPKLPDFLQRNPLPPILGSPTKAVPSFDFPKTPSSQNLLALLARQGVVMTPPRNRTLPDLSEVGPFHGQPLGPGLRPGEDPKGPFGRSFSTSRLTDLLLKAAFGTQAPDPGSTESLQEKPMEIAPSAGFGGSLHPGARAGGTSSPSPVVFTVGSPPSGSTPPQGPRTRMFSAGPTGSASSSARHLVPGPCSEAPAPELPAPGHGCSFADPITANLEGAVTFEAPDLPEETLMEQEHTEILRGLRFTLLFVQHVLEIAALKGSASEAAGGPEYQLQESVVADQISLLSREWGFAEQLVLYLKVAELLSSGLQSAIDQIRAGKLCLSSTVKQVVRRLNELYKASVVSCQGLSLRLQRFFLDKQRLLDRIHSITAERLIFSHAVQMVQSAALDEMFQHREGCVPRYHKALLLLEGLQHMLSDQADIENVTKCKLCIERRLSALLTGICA

[15] = biological target: Cyclin-dependent kinase 3 (Homo sapiens) (UniProt Q00526); experiment: Inhibition of CDK3 (unknown origin) assessed as residual activity at 1000 nM by KINOMEscan analysis relative to control
[16] = biological target: Casein kinase I isoform gamma-3 (Homo sapiens) (UniProt Q9Y6M4); experiment: Inhibition of CSNK1G3 (unknown origin) assessed as residual activity at 1000 nM by KINOMEscan analysis relative to control
Chain of Casein kinase I isoform gamma-3 (Homo sapiens) (Q9Y6M4 whole entry, looked up, canonical isoform): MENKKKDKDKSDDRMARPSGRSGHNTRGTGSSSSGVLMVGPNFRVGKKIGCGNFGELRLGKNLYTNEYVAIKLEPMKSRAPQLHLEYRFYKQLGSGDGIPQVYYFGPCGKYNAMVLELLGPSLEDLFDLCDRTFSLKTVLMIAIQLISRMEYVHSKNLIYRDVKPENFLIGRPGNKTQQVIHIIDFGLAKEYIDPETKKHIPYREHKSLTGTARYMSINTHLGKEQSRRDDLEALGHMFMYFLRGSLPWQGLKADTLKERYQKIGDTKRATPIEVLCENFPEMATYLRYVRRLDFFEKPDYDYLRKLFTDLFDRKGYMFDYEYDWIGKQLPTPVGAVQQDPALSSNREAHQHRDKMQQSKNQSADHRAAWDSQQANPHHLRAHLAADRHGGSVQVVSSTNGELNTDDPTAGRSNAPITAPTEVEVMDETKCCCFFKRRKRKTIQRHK

Chain of Serine/threonine-protein kinase 24 (Homo sapiens) (Q9Y6E0 whole entry, looked up): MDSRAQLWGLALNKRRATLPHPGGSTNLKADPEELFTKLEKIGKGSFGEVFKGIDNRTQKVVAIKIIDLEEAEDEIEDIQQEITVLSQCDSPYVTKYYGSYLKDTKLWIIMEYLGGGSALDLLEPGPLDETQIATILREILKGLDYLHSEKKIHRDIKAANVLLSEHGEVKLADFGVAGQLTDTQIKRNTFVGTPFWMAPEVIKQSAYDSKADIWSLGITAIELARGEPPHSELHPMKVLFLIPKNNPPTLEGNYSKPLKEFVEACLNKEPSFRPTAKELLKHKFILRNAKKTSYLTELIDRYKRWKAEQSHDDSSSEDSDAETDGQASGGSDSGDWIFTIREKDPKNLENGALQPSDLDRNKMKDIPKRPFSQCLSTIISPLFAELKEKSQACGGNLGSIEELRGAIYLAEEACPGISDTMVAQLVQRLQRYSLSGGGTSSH
Chain of Homeodomain-interacting protein kinase 1 (Homo sapiens) (Q86Z02 whole entry, looked up): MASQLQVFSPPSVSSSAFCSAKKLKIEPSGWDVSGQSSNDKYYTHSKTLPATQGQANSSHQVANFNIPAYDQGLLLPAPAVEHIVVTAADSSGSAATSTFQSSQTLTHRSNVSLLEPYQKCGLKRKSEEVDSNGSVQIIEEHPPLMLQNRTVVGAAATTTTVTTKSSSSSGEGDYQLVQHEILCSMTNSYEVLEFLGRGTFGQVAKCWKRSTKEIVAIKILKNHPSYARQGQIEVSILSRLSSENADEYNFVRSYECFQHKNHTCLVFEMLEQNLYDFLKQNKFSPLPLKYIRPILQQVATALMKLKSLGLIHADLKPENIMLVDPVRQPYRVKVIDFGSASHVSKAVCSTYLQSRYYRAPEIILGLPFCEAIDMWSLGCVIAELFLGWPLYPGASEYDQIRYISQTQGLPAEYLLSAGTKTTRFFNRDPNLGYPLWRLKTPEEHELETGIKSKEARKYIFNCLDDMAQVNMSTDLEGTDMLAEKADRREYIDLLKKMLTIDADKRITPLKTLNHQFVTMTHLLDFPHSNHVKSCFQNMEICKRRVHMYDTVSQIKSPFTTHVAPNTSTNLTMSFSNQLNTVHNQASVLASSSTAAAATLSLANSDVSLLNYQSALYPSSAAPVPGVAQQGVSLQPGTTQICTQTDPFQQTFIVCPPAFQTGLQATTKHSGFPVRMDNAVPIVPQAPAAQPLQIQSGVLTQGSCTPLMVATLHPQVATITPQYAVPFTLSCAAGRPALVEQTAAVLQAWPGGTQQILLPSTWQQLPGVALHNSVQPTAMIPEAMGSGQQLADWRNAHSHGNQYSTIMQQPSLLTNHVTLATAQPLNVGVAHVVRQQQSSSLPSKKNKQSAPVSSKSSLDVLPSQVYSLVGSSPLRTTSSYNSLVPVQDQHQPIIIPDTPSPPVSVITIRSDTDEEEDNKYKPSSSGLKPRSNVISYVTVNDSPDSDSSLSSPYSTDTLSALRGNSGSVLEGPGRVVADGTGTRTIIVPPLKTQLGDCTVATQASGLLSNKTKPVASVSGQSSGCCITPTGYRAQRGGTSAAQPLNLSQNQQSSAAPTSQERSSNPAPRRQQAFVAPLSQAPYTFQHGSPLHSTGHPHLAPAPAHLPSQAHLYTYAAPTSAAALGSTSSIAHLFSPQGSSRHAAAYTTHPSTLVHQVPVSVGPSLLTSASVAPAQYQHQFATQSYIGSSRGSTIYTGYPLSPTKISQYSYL
Chain of Tyrosine-protein kinase JAK1 (Homo sapiens) (P23458 whole entry, the tested form may be a part): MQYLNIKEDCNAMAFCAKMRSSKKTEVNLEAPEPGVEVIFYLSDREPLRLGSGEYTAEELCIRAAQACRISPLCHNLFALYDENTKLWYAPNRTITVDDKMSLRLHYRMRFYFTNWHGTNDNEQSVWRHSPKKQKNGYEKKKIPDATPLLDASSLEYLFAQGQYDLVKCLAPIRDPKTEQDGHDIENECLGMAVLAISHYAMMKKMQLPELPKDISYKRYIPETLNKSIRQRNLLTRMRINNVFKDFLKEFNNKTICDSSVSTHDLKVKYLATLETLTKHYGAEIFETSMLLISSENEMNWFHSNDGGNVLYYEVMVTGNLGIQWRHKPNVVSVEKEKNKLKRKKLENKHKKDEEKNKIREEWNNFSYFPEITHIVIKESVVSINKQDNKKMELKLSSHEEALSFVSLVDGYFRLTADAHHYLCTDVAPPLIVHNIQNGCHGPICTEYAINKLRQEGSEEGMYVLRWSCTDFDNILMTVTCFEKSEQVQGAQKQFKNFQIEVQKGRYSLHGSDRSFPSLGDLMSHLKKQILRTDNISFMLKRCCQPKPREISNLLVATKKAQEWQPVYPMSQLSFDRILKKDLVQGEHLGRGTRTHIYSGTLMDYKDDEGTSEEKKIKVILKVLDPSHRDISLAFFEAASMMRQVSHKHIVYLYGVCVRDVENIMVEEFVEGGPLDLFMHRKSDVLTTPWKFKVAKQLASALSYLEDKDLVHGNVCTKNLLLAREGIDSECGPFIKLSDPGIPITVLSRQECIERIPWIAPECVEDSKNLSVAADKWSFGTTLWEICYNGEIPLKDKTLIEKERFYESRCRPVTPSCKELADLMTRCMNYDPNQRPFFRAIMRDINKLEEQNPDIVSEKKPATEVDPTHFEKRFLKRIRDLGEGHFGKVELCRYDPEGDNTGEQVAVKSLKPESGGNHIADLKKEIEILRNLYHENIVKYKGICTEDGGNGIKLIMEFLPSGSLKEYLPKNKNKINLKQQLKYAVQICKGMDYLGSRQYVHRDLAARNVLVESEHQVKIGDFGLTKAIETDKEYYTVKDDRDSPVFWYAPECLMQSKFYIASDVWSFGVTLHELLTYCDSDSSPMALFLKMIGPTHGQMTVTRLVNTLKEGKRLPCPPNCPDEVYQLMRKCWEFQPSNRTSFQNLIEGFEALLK
Chain of Tyrosine-protein kinase ABL1 (Homo sapiens) (P00519 whole entry): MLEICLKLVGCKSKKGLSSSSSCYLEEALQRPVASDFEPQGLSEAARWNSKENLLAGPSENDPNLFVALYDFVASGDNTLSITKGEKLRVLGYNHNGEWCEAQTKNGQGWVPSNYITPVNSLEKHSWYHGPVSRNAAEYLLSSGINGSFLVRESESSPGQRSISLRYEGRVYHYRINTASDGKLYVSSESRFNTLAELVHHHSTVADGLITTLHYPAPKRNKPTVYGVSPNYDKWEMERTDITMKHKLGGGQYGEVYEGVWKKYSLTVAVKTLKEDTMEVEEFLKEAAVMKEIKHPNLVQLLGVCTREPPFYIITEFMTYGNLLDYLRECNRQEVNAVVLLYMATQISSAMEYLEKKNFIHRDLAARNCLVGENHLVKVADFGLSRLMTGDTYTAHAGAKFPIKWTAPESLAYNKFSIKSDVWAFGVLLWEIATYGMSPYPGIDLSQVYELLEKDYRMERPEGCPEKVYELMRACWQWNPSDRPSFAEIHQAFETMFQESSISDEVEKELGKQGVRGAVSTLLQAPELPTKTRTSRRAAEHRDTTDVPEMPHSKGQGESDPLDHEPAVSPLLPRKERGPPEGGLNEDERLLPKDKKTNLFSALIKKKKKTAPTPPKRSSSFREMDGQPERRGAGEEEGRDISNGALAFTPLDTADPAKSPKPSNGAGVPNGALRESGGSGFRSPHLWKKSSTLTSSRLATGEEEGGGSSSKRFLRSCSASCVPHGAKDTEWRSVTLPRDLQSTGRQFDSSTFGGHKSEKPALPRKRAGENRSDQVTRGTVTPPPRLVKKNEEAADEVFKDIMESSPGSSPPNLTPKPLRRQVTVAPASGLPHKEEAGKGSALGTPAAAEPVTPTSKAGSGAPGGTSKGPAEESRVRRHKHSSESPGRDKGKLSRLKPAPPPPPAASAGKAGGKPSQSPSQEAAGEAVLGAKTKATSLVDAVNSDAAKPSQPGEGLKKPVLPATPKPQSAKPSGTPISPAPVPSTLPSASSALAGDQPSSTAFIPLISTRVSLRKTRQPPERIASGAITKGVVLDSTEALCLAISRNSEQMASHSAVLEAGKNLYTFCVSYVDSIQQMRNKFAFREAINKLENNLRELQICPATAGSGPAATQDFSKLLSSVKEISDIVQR
Chain of Cyclin-dependent kinase 3 (Homo sapiens) (Q00526 whole entry, looked up, canonical isoform): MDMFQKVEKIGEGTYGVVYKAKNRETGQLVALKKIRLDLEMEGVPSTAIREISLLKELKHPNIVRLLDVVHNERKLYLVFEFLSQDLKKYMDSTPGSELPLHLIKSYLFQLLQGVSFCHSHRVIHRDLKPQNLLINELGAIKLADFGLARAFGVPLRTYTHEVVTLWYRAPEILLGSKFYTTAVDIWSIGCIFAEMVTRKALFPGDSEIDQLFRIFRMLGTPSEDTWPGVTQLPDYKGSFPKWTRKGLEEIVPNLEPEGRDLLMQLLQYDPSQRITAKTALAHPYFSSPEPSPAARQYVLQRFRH
Chain of Serine/threonine-protein kinase pim-1 (Homo sapiens) (P11309 whole entry, looked up, the tested form may be a part): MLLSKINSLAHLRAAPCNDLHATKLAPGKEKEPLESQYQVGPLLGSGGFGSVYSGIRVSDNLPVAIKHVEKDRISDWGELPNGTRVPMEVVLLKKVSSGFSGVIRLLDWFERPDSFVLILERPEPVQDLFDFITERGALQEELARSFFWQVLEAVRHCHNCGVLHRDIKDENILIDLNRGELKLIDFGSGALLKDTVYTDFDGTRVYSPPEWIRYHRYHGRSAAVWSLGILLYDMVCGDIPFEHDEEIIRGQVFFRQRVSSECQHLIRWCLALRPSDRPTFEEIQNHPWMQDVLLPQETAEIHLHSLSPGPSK

SMILES	Activity [1]	Activity [2]	Activity [3]	Activity [4]	Activity [5]	Activity [6]	Activity [7]	Activity [8]	Activity [9]	Activity [10]	Activity [11]	Activity [12]	Activity [13]	Activity [14]	Activity [15]	Activity [16]
COc1cc2nc(C)nc(N[C@H](C)c3cccc(-c4cn[nH]c4)c3)c2cc1OC	72%	79%	78%	94%	92%	89%	83%	81%	95%	61%	67%	99%	94%	97%	90%	80%
COc1cc2ncnc(N[C@H](C)c3cccc4ccccc34)c2cc1OC	100%	98%	100%	100%	99%	91%	100%	97%	100%	100%	89%	97%	83%	87%	97%	100%
